According to US20190059375A1, “SYNERGISTIC FUNGICIDAL COMPOSITION FOR CONTROLLING PLANT DISEASES” (Sumitomo Chemical Company, Limited, priority 2016, published 2019):

Assays:
[1] = tested on: Septoria leaf blotch (Mycosphaerella graminicola); experiment: Test Example 3: growth of Septoria leaf blotch in YBG medium, microtiter plate, absorbance at 550 nm; assay type: cell-based; settings: single use, concentration in medium 0.005 ppm; 18° C., four days
Protocol: Each of the present compound 1 or the present compound 2 was dissolved into dimethyl sulfoxide such that each concentration of these compounds was adjusted to one hundred fifty times as much as the concentration indicated in the below-mentioned Table 2. The resultant agent solution was dispensed into each microtiter plate (with 96 wells) in 1 μl portion thereof per well. […] The plate was cultivated at 18° C. for four days, thereby allowing Septoria leaf blotch (Mycosphaerella graminicola) to undergo proliferation, and the absorbance at 550 nm of each well of the microtiter plate was then measured to examine a degree of growth of Septoria leaf blotch (hereinafter referred to as “treated group”).
Whereas, Septoria leaf blotch was proliferated similarly to the case of the treated group except that dimethyl sulfoxide was used instead of the agent solution, and the degree of the growth was examined (hereinafter referred to as “untreated group”). The efficacy was calculated from each of the obtained degree of growth of the treated group and the untreated group respectively by the following “Equation 1”. […]

[2] = tested on: Brown rust (Puccinia recondita); experiment: Test Example 4: foliar spray on wheat, Brown rust lesion area; assay type: in vivo, Puccinia recondita on wheat (cultivar. Shirogane); settings: single use, foliar spray one day before inoculation, lesion area after ten days
Protocol: Five (5) parts of the present compound 1, 35 parts of a mixture of white carbon and ammonium polyoxyethylene alkyl ether sulfate (the weight ratio of 1:1) and […] of water were mixed, and the mixture was then finely-ground by a wet grinding method to obtain a flowable comprising the present compound 1. Separately, the flowable comprising the present compound 2 was prepared according to the above-mentioned similar method except that the present compound 2 was used instead of the present compound 1.
Each of the flowable comprising the present compound 1 and the flowable comprising the present compound 2 was diluted with water and if necessary, the resultant dilute solutions were mixed each other such that each concentration of the respective compounds in the dilution solution was adjusted to the concentration indicated in Table 3, to prepare the dilution solutions, respectively.
A plastic pot was filled with soil, and thereto wheat (cultivar. Shirogane) was seeded, and the plants were grown in a greenhouse for ten days. The above-mentioned dilution solutions were sprayed to foliar parts so as to adhere adequately onto the surfaces of leaves of the above wheats. After spraying the dilute solution, the plants were air-dried, and one day after the application, an aqueous suspension of uredospores of Brown rust (Puccinia recondita) was inoculated by spraying thereto. After the inoculation, the plants were placed at 27° C. under humid condition for one day, and were then cultivated under lighting for ten days, and a lesion area was examined (hereinafter referred to as “lesion area of treated group”).
Whereas, wheats were cultivated similarly to the treated group except that no foliage application of the above-mentioned agent solution was done, and Brown rust were inoculated, and the lesion area thereof was examined (hereinafter referred to as “lesion area of the untreated group”).
From each of the lesion area of the treated group and the untreated group, respectively, the efficacy of the treated group was calculated by the following Equation 2. […]

SMILES | Efficacy (%) [1] [%] | Efficacy (%) ([2]; concentration in agent solution 0.0001 ppm) | Efficacy (%) ([2]; concentration in agent solution 0.01 ppm) | Efficacy (%) ([2]; concentration in agent solution 0.001 ppm)
CNC(=O)C(OC)c1ccccc1COc1cc(C)ccc1C (stereo not shown) [Present compound 1] | 20 | 22 | 46 | 
CC1CC(C)(C)c2c(F)ccc(NC(=O)c3cn(C)nc3C(F)F)c21 (stereo not shown) [Present compound 2] |  |  |  | 15
